# Data as given in US20100160385A1, “FUNGICIDAL TRIPHENYL-SUBSTITUTED PYRIDONES” (E.I. DU PONT DE NEMOURS AND COMPANY, priority 2008, published 2010).
# Tests used:
# Septoria nodorum = test: Test D: wheat glume blotch, preventive spray on wheat seedlings; type: in vivo; settings: wheat seedlings sprayed to run-off, inoculated following day, 48 h saturated atmosphere then 7 days at 20° C.; 100 = 100% disease control, 0 = no control; test concentration not given
# Septoria tritici = test: Test C: wheat leaf blotch, preventive spray on wheat seedlings; type: in vivo; settings: wheat seedlings sprayed to run-off, inoculated following day, 48 h saturated atmosphere then 19 days at 20° C.; 100 = 100% disease control, 0 = no control; test concentration not given
# Botrytis cinerea = settings: tomato seedlings sprayed to run-off, inoculated following day, 48 h saturated atmosphere at 20° C. then 3 days at 24° C.; 100 = 100% disease control, 0 = no control; test concentration not given
# [1] = test system: Erysiphe graminis f. sp. tritici; test: Test A: wheat powdery mildew, preventive spray on wheat seedlings; type: in vivo; settings: wheat seedlings sprayed to run-off, inoculated following day, rated after 8 days at 20° C.; 100 = 100% disease control, 0 = no control; test concentration not given
# [2] = test system: Puccinia recondite f. sp. tritici; test: Test B: wheat leaf rust, preventive spray on wheat seedlings; type: in vivo; settings: wheat seedlings sprayed to run-off, inoculated following day, 24 h saturated atmosphere then 7 days at 20° C.; 100 = 100% disease control, 0 = no control; test concentration not given
# Alternaria solani = settings: tomato seedlings sprayed to run-off, inoculated following day, 48 h saturated atmosphere at 27° C. then 5 days at 20° C.; 100 = 100% disease control, 0 = no control; test concentration not given
compound,measurement,setting,value
"COc1cc(OC)c(Cl)c(-n2c(-c3ccc(F)cc3)cc(=O)c(C)c2-c2c(F)cc(F)cc2F)c1 [Compound 1, 1-(2-chloro-3-5-dimethoxyphenyl)-6-(4-fluorophenyl)-3-methyl-2-(2,4,6-trifluorophenyl)-4-(1H)-pyridinone]",Test D disease control rating,Septoria nodorum,100%
same,Test C disease control rating,Septoria tritici,97%
same,Test F disease control rating,Botrytis cinerea,98%
same,Test A disease control rating,[1],99%
same,Test B disease control rating,[2],100%
same,Test E disease control rating,Alternaria solani,100%
